In US10179927B2, “Electrochemical detection of microorganisms” (priority 2014, dated 2019):

What was measured:
[1] = test system: Enterococcus faecalis; experiment: Suitability of colorimetric detection compounds for bioelectrochemical detection of Enterococcus faecalis; type: cell-based; conditions: compound used for colorimetric detection of Enterococcus faecalis
Source text: Bioelectroanalytical techniques are emerging as ways to enumerate and scrutinize microbial systems. But there is still need in the art for technologies specifically designed for bioelectroanalytical detection of FIB. […] The latter, in particular, makes them unsuitable in self-powering systems.

[2] = test system: mixed culture of E. coli and A. hydrophila; experiment: Detection time of mixed culture of A. hydrophila and E. coli in ECs; type: cell-based, Escherichia coli; Aeromonas hydrophila; conditions: 30° C., E. coli constant 5×10^5 CFU mL^−1
Protocol: (§1) Escherichia coli strain BL21 was selected to represent a FIB of human origin that contains the uidA and lacZ genes, i.e. a FC, whereas Aeromonas hydrophila (DSM 6173) is an environmental organism that has the lacZ gene but which is not considered a coliform. All organisms were cultured aerobically for 20 h. E. coli was grown in Luria Bertani (Lennox) medium at 37° C., and A. hydrophile at 30° C. in tryptone soy broth (TSB) in a shaking incubator.
(§2) The resulting overnight cultures were diluted in sterile modified M9 medium (Na2HPO4.7H2O (126 mM); KH2PO4 (110 mM); NH4Cl (93 mM); NaCl (42 mM); 1 mL/L vitamin stock solution; tryptone 12.5 g/L; HEPES: 6 g/L; and macro nutrients). The carbon source was either D-galacturonic acid or D-glucuronic acid (3.75 g/L) to achieve a final inoculum density in the range of 1.0×10^0, 5.0×10^0, 5.0×10^1, 5.0×10^2, 5.0×10^3, 5.0×10^4, and 5.0×10^5 CFU mL^−1 in both electrochemical system and the bioelectrochemical system.
(§3) Conical ECs with a working volume of 10 mL were used with a customized Teflon cap to accommodate a three electrode configuration along with gas fittings to maintain a moist anaerobic atmosphere. Carbon felt working electrodes (1×1×0.318 cm) (VWR, Singapore) were kept for 24 h in 1 M HCl and stored in deionized (DI) water before use. The electrodes were connected to titanium wire (0.25 mmØ, Sigma-Aldrich) using a nylon nut and bolt. A coiled titanium wire was used as counter electrode and an Ag/AgCl reference electrode (78 mm, 6 mm Outer Ø, Biologic, France) was connected using a 1 M KCl in 1.5% agar salt bridge. […]
(§4) Following reporter supplement and inoculation with the test microorganism, the ECs were connected to a multichannel potentiostat (Biologic, France) and cyclic voltammetry (CV) and differential pulse voltammetry (DPV) were performed immediately. Data acquisition was recorded by EC-Lab software (Biologic, France). […] A detection event was calculated as 4 times the standard deviation of the baseline and detection times are expressed as the mean of triplicate analyses unless stated otherwise. […]

[3] = test system: Escherichia coli strain BL21; experiment: Chronoamperometric detection of E. coli with electrochemically active reporters in three-electrode electrochemical systems (ECs); type: cell-based; conditions: for Detection time (±std dev): chronoamperometry in ECs, reporter 50 μM
Protocol: Resorufin (TCI-Europe), 2-hydroxy-1,4-naphthoquinone (2H14NQ) (TCI-Europe), 5-hydroxy-1,4-naphthoquinone (5H14NQ) (TCI-Europe) and 5,8-dihydroxy-1,4-naphthoquinone (58H14NQ) (Sigma-Aldrich) were obtained commercially and added to M9 medium in their unconjugated form to achieve a working concentration of 50 μM. Resorufin glycoconjugates (resorufin-β-d-galactopyranoside and resorufin-β-d-glucopyranoside) were obtained commercially (Sigma-Aldrich), whereas 2-hydroxy-1,4-naphthoquinone-β-d-galactopyranoside (2H14NQGal) and 2-hydroxy-1,4-naphthoquinone-β-d-glucopyranoside (2H14NQG1u) were specifically synthesized by Sussex Research Ltd. All reporters were added to a final concentration of 50 μM. Stock concentrations (1.0×10^−3 M) of 2H14NQ and 5H14NQ were prepared by first dissolving in 10 μL of 2 M NaOH and then making up to volume in Type II water (Veolia) whereas 58H14NQ (1.0×10^−3 M) was prepared in 1:1 DMSO:Type II water aliquots. Both stock solutions were stored at −20° C. until needed. Conjugated reporters were maintained as 1 mM stock solutions in Type II water and stored at 5° C.
as §1, §2
Conical ECs with a working volume of 10 mL were used with a customized Teflon cap to accommodate a three electrode configuration along with gas fittings to maintain a moist anaerobic atmosphere. Carbon felt working electrodes (1×1×0.318 cm) (VWR, Singapore) were kept for 24 h in 1 M HCl and stored in deionized (DI) water before use. The electrodes were connected to titanium wire (0.25 mmØ, Sigma-Aldrich) using a nylon nut and bolt. A coiled titanium wire was used as counter electrode and an Ag/AgCl reference electrode (78 mm, 6 mm Outer Ø, Biologic, France) was connected using a 1 M KCl in 1.5% agar salt bridge. The assembled cell was then filled with 1 M KCl solution ending in a 4 mm glass frit (CoralPor™, Biologic, France). The entire assembly was then autoclaved (121° C. for 15 min). Nine mL of degassed modified M9 medium was added to the ECs and supplemented with a reporter to a final concentration of 5.0×10^−5 M in 10 mL working volume. The ECs were then inoculated with the targeted test organism to achieve a final working volume of 10 mL. The headspace was flushed continuously with sterile humidified N2. The ECs were operated at 30° C., 37° C. or 44.5° C. Stirring was maintained continuously with a magnetic stirrer in the dark to prevent photo-bleaching of the light sensitive mediators.
Following reporter supplement and inoculation with the test microorganism, the ECs were connected to a multichannel potentiostat (Biologic, France) and cyclic voltammetry (CV) and differential pulse voltammetry (DPV) were performed immediately. Data acquisition was recorded by EC-Lab software (Biologic, France). Chronoamperometry (CA) was applied for up to 24 h to detect redox active reporter moieties. A detection event was calculated as 4 times the standard deviation of the baseline and detection times are expressed as the mean of triplicate analyses unless stated otherwise. […]

[4] = test system: A. hydrophila; experiment: Electrochemical detection of A. hydrophila in ECs; type: cell-based, Aeromonas hydrophila; conditions: both 30° C. and 37° C. (FIG. 5)
Protocol: as §1
as §3, with “bolt.” for “bolt. A coiled titanium wire was used as counter electrode and an Ag/AgCl reference electrode (78 mm, 6 mm Outer Ø, Biologic, France) was connected using a 1 M KCl in 1.5% agar salt bridge.”
as §4

SMILES: Cc1cc(=O)oc2cc(OC3O[C@H](CO)[C@@H](O)[C@H](O)[C@H]3O)ccc12 (stereo partly drawn) [4-methylumbeliferone-glucoside]
- Suitability for bioelectrochemical detection [1]: not well suited for bioelectrochemical detection

SMILES: O=c1ccc2nc3ccc(O[C@@H]4O[C@H](CO)[C@H](O)[C@H](O)[C@H]4O)cc3oc-2c1 [ResGal, resorufin-β-d-galactopyranoside]
- Detection time, mixed culture ([2]; A. hydrophila 5×10^2 CFU mL^−1 (FIG. 5)): ~450 min
- Detection time, mixed culture ([2]; A. hydrophila 5×10^5 CFU mL^−1 (FIG. 5)): ~280 min
- Detection time (±std dev) ([3]; 30° C., inoculum 5 × 10^2 CFU mL^−1): 521(±121) minutes
- Detection time (±std dev) ([3]; 30° C., inoculum 5 × 10^3 CFU mL^−1): 372(±82) minutes
- Detection time (±std dev) ([3]; 30° C., inoculum 5 × 10^4 CFU mL^−1): 218(±31) minutes
- Detection time (±std dev) ([3]; 30° C., inoculum 5 × 10^5 CFU mL^−1): 150(±56) minutes
- Detection times for E. coli ([3]; 30° C., inoculum sizes 5×10^5-5×10^2): 132 to 521 min
- Detection time (±std dev) ([3]; 37° C., inoculum 5 × 10^2 CFU mL^−1): 734(±188) minutes
- Detection time (±std dev) ([3]; 37° C., inoculum 5 × 10^3 CFU mL^−1): 477(±23) minutes
- Detection time (±std dev) ([3]; 37° C., inoculum 5 × 10^4 CFU mL^−1): 309(±55) minutes
- Detection time (±std dev) ([3]; 37° C., inoculum 5 × 10^5 CFU mL^−1): 260 (±55) minutes
- Detection time ([3]; inoculum size 5×10^3 CFU mL^−1, ECs): ~8 h
- Detection of E. coli achieved in (time) ([3]; inoculum sizes between 5×10^5 and 5×10^3 CFU mL^−1, ECs, triplicate): 4 to 10 h
- Electrochemical detection of A. hydrophila [4]: could be detected electrochemically
